From patent US20230210797A1, “PREVENTING AND TREATING HYPOGLYCEMIA” (DIAMYD MEDICAL AB, priority 2019, published 2023)
“Also recorded” adds a separate entry of the source.

Columns and labels:
epinephrine = assay: Hypoglycemic clamp: plasma epinephrine levels; assay type: in vivo, human; settings: for epinephrine levels, Change from baseline, Mean (SD) / epinephrine levels, Change from baseline, Median (Min, Max) / epinephrine levels, Observed value, Mean (SD) / epinephrine levels, Observed value, Median (Min, Max): C-peptide undetectable
Experimental: (§1) In order to evaluate the counterregulatory hormone response to hypoglycemia, a hypoglycemic clamp will be performed. The Hypoglycemic Clamp must be performed according to the instructions in the Operations Manual. (Appendix 3)
(§2) The patient should: • Come to the study site following an overnight fast (>10 hours), i.e. the patient may not eat but is permitted to drink water • Not have taken the Remygen and, if applicable, Alprazolam dose in the morning • Not take short acting/direct acting insulin within 6 hours before the investigation. • The patient is allowed to take base-insulin day/night before, but not in the morning before the investigation.
(§3) Patients with CSII (insulin pump) must continue with their basal dose insulin, but not add bolus dose during the last 6 hours before the investigation.
(§4) If a patient has a blood sugar level <4 mmol/L in the morning of the scheduled visit, the patient is allowed to take dextrose tablets and then come to the study site. The patient is allowed to perform the investigation if the blood sugar level is >4 mmol/L.
(§5) In the dose-escalation part of the study, the patient will take study drug 30 min prior to start of the hypoglycemic clamp. In the main study, the study drug will instead be taken after finalization of the hypoglycemic clamp. Baseline blood samples will be obtained for glucose, glucagon, epinephrine, norepinephrine, growth hormone and cortisol. The clamp will then be initiated by an intravenous insulin infusion at a rate of 2 mU×kg^−1×min^−1. Glucose 100 mg/ml will then be administered in variable infusion rates to clamp the blood glucose concentration at 5.5 mmol/land then at 2.5 mmol/land kept stable for 30 min. Blood glucose will be evaluated repeatedly in order to find the optimal glucose infusion rate. Blood sampling to determined levels of counterregulatory hormones as described above will be performed at each of these target levels when a stable glucose concentration has been reached. The insulin infusion will thereafter be terminated and the patient is allowed to eat and will be observed until normoglycemia is achieved. If necessary, additional glucose administration will be given to allow blood glucose concentrations to normalize.
Plasma glucose was first lowered to normoglycemic levels (5.5 mmol/L) and hormone levels monitored, and then to hypoglycemic levels (2.5 mmol/L) and hormone levels monitored. Difference was calculated as a measurement of the response to hypoglycemia.

cortisol = assay: Hypoglycemic clamp: plasma cortisol levels; assay type: in vivo, human; settings: for Cortisol levels, Change from baseline, Mean (SD) / Cortisol levels, Change from baseline, Median (Min, Max) / Cortisol levels, Observed value, Mean (SD) / Cortisol levels, Observed value, Median (Min, Max): C-peptide undetectable
Experimental: as §1, §2, §3, §4, §5
Only patients with c-peptide levels that were undetectable (in a standard assay, i.e. <0.01 nmol/L) are included (5 of 6) in the data below.
Plasma levels of glucagon, cortisol, epinephrine, growth hormone and glucose were measured at baseline (increased glucose in T1D subjects). Plasma glucose was first lowered to normoglycemic levels (5.5 mmol/L) and hormone levels monitored, and then to hypoglycemic levels (2.5 mmol/L) and hormone levels monitored. Difference was calculated as a measurement of the response to hypoglycemia.

[1] = Visit 5, 200 mg GABA per day, Event 2.5 mmol/L
[2] = Visit 5, 200 mg GABA per day, Event 5.5 mmol/L
[3] = Visit 5, 200 mg GABA per day, Event Baseline
[4] = Visit 5, 200 mg GABA per day, Event Diff 2.5-5.5 mmol/L
[5] = Visit 7, 600 mg GABA per day, Event 2.5 mmol/L
[6] = Visit 7, 600 mg GABA per day, Event 5.5 mmol/L
[7] = Visit 7, 600 mg GABA per day, Event Baseline
[8] = Visit 7, 600 mg GABA per day, Event Diff 2.5-5.5 mmol/L
[9] = Visit 9, 1200 mg GABA per day, Event 2.5 mmol/L
[10] = Visit 9, 1200 mg GABA per day, Event 5.5 mmol/L
[11] = Visit 9, 1200 mg GABA per day, Event Baseline
[12] = Visit 9, 1200 mg GABA per day, Event Diff 2.5-5.5 mmol/L
[13] = change in levels when clamping to 2.5 mmol/L from 5.5 mmol/L

NCCCC(=O)O [GABA, Gamma-amino butyric acid]
epinephrine levels, Change from baseline, Mean (SD) (epinephrine; [1]): 0.800 (0.720) nmol/L
epinephrine levels, Change from baseline, Median (Min, Max) (epinephrine; [1]): 0.400 (0.30, 2.00) nmol/L
epinephrine levels, Observed value, Mean (SD) (epinephrine; [1]): 1.640 (1.014) nmol/L
epinephrine levels, Observed value, Median (Min, Max) (epinephrine; [1]): 1.200 (0.50, 2.90) nmol/L
epinephrine levels, Change from baseline, Mean (SD) (epinephrine; [2]): 0.000 (0.000) nmol/L
epinephrine levels, Change from baseline, Median (Min, Max) (epinephrine; [2]): 0.000 (0.00, 0.00) nmol/L
epinephrine levels, Observed value, Mean (SD) (epinephrine; [2]): 0.150 (0.000) nmol/L
epinephrine levels, Observed value, Median (Min, Max) (epinephrine; [2]): 0.150 (0.15, 0.15) nmol/L
epinephrine levels, Change from baseline, Mean (SD) (epinephrine; [3]): 0.000 (0.000) nmol/L
epinephrine levels, Change from baseline, Median (Min, Max) (epinephrine; [3]): 0.000 (0.00, 0.00) nmol/L
epinephrine levels, Observed value, Mean (SD) (epinephrine; [3]): 0.150 (0.000) nmol/L
epinephrine levels, Observed value, Median (Min, Max) (epinephrine; [3]): 0.150 (0.15, 0.15) nmol/L
epinephrine levels, Change from baseline, Mean (SD) (epinephrine; [4]): 0.800 (0.720) nmol/L
epinephrine levels, Change from baseline, Median (Min, Max) (epinephrine; [4]): 0.400 (0.30, 2.00) nmol/L
epinephrine levels, Observed value, Mean (SD) (epinephrine; [4]): 1.490 (1.014) nmol/L
epinephrine levels, Observed value, Median (Min, Max) (epinephrine; [4]): 1.050 (0.35, 2.75) nmol/L
epinephrine levels, Change from baseline, Mean (SD) (epinephrine; [5]): 0.560 (0.585) nmol/L
epinephrine levels, Change from baseline, Median (Min, Max) (epinephrine; [5]): 0.800 (−0.40, 1.10) nmol/L
epinephrine levels, Observed value, Mean (SD) (epinephrine; [5]): 1.400 (0.579) nmol/L
epinephrine levels, Observed value, Median (Min, Max) (epinephrine; [5]): 1.700 (0.60, 2.00) nmol/L
epinephrine levels, Change from baseline, Median (Min, Max) (epinephrine; [6]): 0.000 (0.00, 0.25) nmol/L
epinephrine levels, Observed value, Median (Min, Max) (epinephrine; [6]): 0.150 (0.15, 0.40) nmol/L
epinephrine levels, Change from baseline, Mean (SD) (epinephrine; [7]): 0.000 (0.000) nmol/L
epinephrine levels, Change from baseline, Median (Min, Max) (epinephrine; [7]): 0.000 (0.00, 0.00) nmol/L
epinephrine levels, Observed value, Mean (SD) (epinephrine; [7]): 0.150 (0.000) nmol/L
epinephrine levels, Observed value, Median (Min, Max) (epinephrine; [7]): 0.150 (0.15, 0.15) nmol/L
epinephrine levels, Change from baseline, Mean (SD) (epinephrine; [8]): 0.510 (0.564) nmol/L
epinephrine levels, Change from baseline, Median (Min, Max) (epinephrine; [8]): 0.600 (−0.40, 1.10) nmol/L
epinephrine levels, Observed value, Mean (SD) (epinephrine; [8]): 1.200 (0.630) nmol/L
epinephrine levels, Change from baseline, Mean (SD) (epinephrine; [9]): 0.670 (0.709) nmol/L
epinephrine levels, Change from baseline, Median (Min, Max) (epinephrine; [9]): 0.500 (0.00, 1.70) nmol/L
epinephrine levels, Observed value, Mean (SD) (epinephrine; [9]): 1.510 (1.070) nmol/L
epinephrine levels, Observed value, Median (Min, Max) (epinephrine; [9]): 1.200 (0.15, 2.60) nmol/L
epinephrine levels, Change from baseline, Mean (SD) (epinephrine; [10]): 0.000 (0.000) nmol/L
epinephrine levels, Change from baseline, Median (Min, Max) (epinephrine; [10]): 0.000 (0.00, 0.00) nmol/L
epinephrine levels, Observed value, Mean (SD) (epinephrine; [10]): 0.150 (0.000) nmol/L
epinephrine levels, Observed value, Median (Min, Max) (epinephrine; [10]): 0.150 (0.15, 0.15) nmol/L
epinephrine levels, Change from baseline, Mean (SD) (epinephrine; [11]): 0.000 (0.000) nmol/L
epinephrine levels, Change from baseline, Median (Min, Max) (epinephrine; [11]): 0.000 (0.00, 0.00) nmol/L
epinephrine levels, Observed value, Mean (SD) (epinephrine; [11]): 0.150 (0.000) nmol/L
epinephrine levels, Observed value, Median (Min, Max) (epinephrine; [11]): 0.150 (0.15, 0.15) nmol/L
epinephrine levels, Change from baseline, Mean (SD) (epinephrine; [12]): 0.670 (0.709) nmol/L
epinephrine levels, Change from baseline, Median (Min, Max) (epinephrine; [12]): 0.500 (0.00, 1.70) nmol/L
epinephrine levels, Observed value, Median (Min, Max) (epinephrine; [12]): 1.050 (0.00, 2.45) nmol/L
Counter regulatory response of Epinephrine, effect of GABA treatment (epinephrine; [13]): increased
Cortisol levels, Change from baseline, Mean (SD) (cortisol; [1]): 49.6 nmol/L
Cortisol levels, Change from baseline, Median (Min, Max) (cortisol; [1]): 40.0 nmol/L
Cortisol levels, Observed value, Mean (SD) (cortisol; [1]): 356.2 nmol/L
Cortisol levels, Observed value, Median (Min, Max) (cortisol; [1]): 334.0 nmol/L
Cortisol levels, Change from baseline, Mean (SD) (cortisol; [2]): -141.8 nmol/L
Cortisol levels, Change from baseline, Median (Min, Max) (cortisol; [2]): -179.0 nmol/L
Cortisol levels, Observed value, Mean (SD) (cortisol; [2]): 198.8 nmol/L
Cortisol levels, Observed value, Median (Min, Max) (cortisol; [2]): 176.0 nmol/L
Cortisol levels, Change from baseline, Mean (SD) (cortisol; [3]): -198.8 nmol/L
Cortisol levels, Change from baseline, Median (Min, Max) (cortisol; [3]): -196.0 nmol/L
Cortisol levels, Observed value, Mean (SD) (cortisol; [3]): 215.0 nmol/L
Cortisol levels, Observed value, Median (Min, Max) (cortisol; [3]): 213.0 nmol/L
Cortisol levels, Change from baseline, Mean (SD) (cortisol; [4]): 191.4 nmol/L
Cortisol levels, Change from baseline, Median (Min, Max) (cortisol; [4]): 125.0 nmol/L
Cortisol levels, Observed value, Mean (SD) (cortisol; [4]): 157.4 nmol/L
Cortisol levels, Observed value, Median (Min, Max) (cortisol; [4]): 162.0 nmol/L
Cortisol levels, Change from baseline, Mean (SD) (cortisol; [5]): 51.8 nmol/L
Cortisol levels, Change from baseline, Median (Min, Max) (cortisol; [5]): 36.0 nmol/L
Cortisol levels, Observed value, Mean (SD) (cortisol; [5]): 358.4 nmol/L
Cortisol levels, Observed value, Median (Min, Max) (cortisol; [5]): 360.0 nmol/L
Cortisol levels, Change from baseline, Mean (SD) (cortisol; [6]): -157.0 nmol/L
Cortisol levels, Change from baseline, Median (Min, Max) (cortisol; [6]): -185.0 nmol/L
Cortisol levels, Observed value, Mean (SD) (cortisol; [6]): 183.6 nmol/L
Cortisol levels, Observed value, Median (Min, Max) (cortisol; [6]): 166.0 nmol/L
Cortisol levels, Change from baseline, Mean (SD) (cortisol; [7]): -222.6 nmol/L
Cortisol levels, Change from baseline, Median (Min, Max) (cortisol; [7]): -217.0 nmol/L
Cortisol levels, Observed value, Mean (SD) (cortisol; [7]): 191.2 nmol/L
Cortisol levels, Observed value, Median (Min, Max) (cortisol; [7]): 189.0 nmol/L
Cortisol levels, Change from baseline, Mean (SD) (cortisol; [8]): 208.8 nmol/L
Cortisol levels, Change from baseline, Median (Min, Max) (cortisol; [8]): 141.0 nmol/L
Cortisol levels, Observed value, Mean (SD) (cortisol; [8]): 174.8 nmol/L
Cortisol levels, Observed value, Median (Min, Max) (cortisol; [8]): 194.0 nmol/L
Cortisol levels, Change from baseline, Mean (SD) (cortisol; [9]): 6.6 nmol/L
Cortisol levels, Change from baseline, Median (Min, Max) (cortisol; [9]): 29.0 nmol/L
Cortisol levels, Observed value, Mean (SD) (cortisol; [9]): 313.2 nmol/L
Cortisol levels, Observed value, Median (Min, Max) (cortisol; [9]): 285.0 nmol/L
Cortisol levels, Change from baseline, Mean (SD) (cortisol; [10]): -117.2 nmol/L
Cortisol levels, Change from baseline, Median (Min, Max) (cortisol; [10]): -115.0 nmol/L
Cortisol levels, Observed value, Mean (SD) (cortisol; [10]): 223.4 nmol/L
Cortisol levels, Observed value, Median (Min, Max) (cortisol; [10]): 193.0 nmol/L
Cortisol levels, Change from baseline, Mean (SD) (cortisol; [11]): -196.0 nmol/L
Cortisol levels, Change from baseline, Median (Min, Max) (cortisol; [11]): -191.0 nmol/L
Cortisol levels, Observed value, Mean (SD) (cortisol; [11]): 217.8 nmol/L
Cortisol levels, Observed value, Median (Min, Max) (cortisol; [11]): 226.0 nmol/L
Cortisol levels, Change from baseline, Mean (SD) (cortisol; [12]): 123.8 nmol/L
Cortisol levels, Change from baseline, Median (Min, Max) (cortisol; [12]): 83.0 nmol/L
Cortisol levels, Observed value, Mean (SD) (cortisol; [12]): 89.8 nmol/L
Cortisol levels, Observed value, Median (Min, Max) (cortisol; [12]): -10.0 nmol/L
Counter regulatory response of Cortisol, effect of GABA treatment (cortisol; [13]): increased
Normoglycemic levels of Cortisol, effect of GABA treatment (cortisol; clamped to 5.5 mmol/L): decrease
Baseline (no clamp) Cortisol levels, effect of GABA treatment (cortisol; dose escalation part, oral GABA, type 1 diabetes patients with undetectable c-peptide): downregulated; also recorded: decrease
